Measurements from ChEMBL document CHEMBL6092167, “Phosphorylation as an Effective Tool to Improve Stability and Reduce Toxicity of Antimicrobial Peptides” (J Med Chem, 2024).
In brackets after ≈: the same amount, converted by molar mass. Activity calls are given as the source filed them. No cut-off for these calls is given here. Non-standard residues stand in square brackets, D forms with d. Residues, ends and D or L forms follow the SMILES beside them. 2Nal = N[C@@H](Cc1ccc2ccccc2c1)C(=O)O

Assays:
Staphylococcus aureus [1] = test: Inhibition of biofilm formation in Staphylococcus aureus ATCC 25923 at 2 times MIC incubated for 24 hrs by crystal violet staining based assay; format: functional, organism-based
Bacillus subtilis = test: Antibacterial activity against Bacillus subtilis ATCC 23857 incubated for 18 to 24 hrs by broth microdilution method; format: functional; details: time 18-24 hrs
Staphylococcus aureus [2] = test: Antibiofilm activity against Staphylococcus aureus ATCC 25923 assessed as eradication of preformed biofilms at 4 times MIC incubated for 24 hrs by crystal violet staining based assay; format: functional, organism-based
Pseudomonas aeruginosa [3] = test: Antibacterial activity against Pseudomonas aeruginosa ATCC 27853 incubated for 18 to 24 hrs by broth microdilution method; format: functional; details: time 18-24 hrs
Escherichia coli [4] = test: Antibacterial activity against Escherichia coli 850 incubated for 18 to 24 hrs by broth microdilution method; format: functional; details: time 18-24 hrs
Staphylococcus aureus [5] = test: Antibacterial activity against Staphylococcus aureus 794 incubated for 18 to 24 hrs by broth microdilution method; format: functional; details: time 18-24 hrs
Escherichia coli [6] = test: Antibacterial activity against Escherichia coli ATCC 25922 incubated for 18 to 24 hrs by broth microdilution method; format: functional; details: time 18-24 hrs
Staphylococcus aureus [7] = test: Bactericidal activity against Staphylococcus aureus ATCC 25923 at 2 times MIC incubated for 24 hrs by time kill assay; format: functional
Pseudomonas aeruginosa [8] = test: Antibacterial activity against Pseudomonas aeruginosa 119 incubated for 18 to 24 hrs by broth microdilution method; format: functional; details: time 18-24 hrs
Staphylococcus aureus [9] = test: Antibacterial activity against methicillin resistant Staphylococcus aureus 48 incubated for 18 to 24 hrs by broth microdilution method; format: functional; details: time 18-24 hrs
Staphylococcus aureus [10] = test: Antibacterial activity against Staphylococcus aureus ATCC 25923 incubated for 18 to 24 hrs by broth microdilution method; format: functional; details: time 18-24 hrs
Escherichia coli [11] = test: Antibacterial activity against Escherichia coli 780 incubated for 18 to 24 hrs by broth microdilution method; format: functional; details: time 18-24 hrs
Klebsiella pneumoniae [12] = test: Antibacterial activity against Klebsiella pneumoniae ATCC 700603 incubated for 18 to 24 hrs by broth microdilution method; format: functional; details: time 18-24 hrs
Staphylococcus aureus [13] = test: Antibacterial activity against methicillin resistant Staphylococcus aureus ATCC 33591 incubated for 18 to 24 hrs by broth microdilution method; format: functional; details: time 18-24 hrs
Acinetobacter baumannii = test: Antibacterial activity against Acinetobacter baumannii ATCC 19606 incubated for 18 to 24 hrs by broth microdilution method; format: functional; details: time 18-24 hrs
Staphylococcus aureus [14] = test: Antibacterial activity against Staphylococcus aureus ATCC 25923 infected in BALB/c mouse systemic infection model assessed as improved alveoli dilation at 1.09 mg/kg, ip pre-infected for 2 hrs followed by compound addition and measured after 8 hrs postinfection; format: functional, organism-based; details: time 6.0 hrs
Staphylococcus aureus [15] = test: Antibacterial activity against Staphylococcus aureus ATCC 25923 infected in BALB/c mouse systemic infection model assessed as reduction in tissue hemorrhage at 1.09 mg/kg, ip pre-infected for 2 hrs followed by compound addition and measured after 8 hrs postinfection; format: functional, organism-based; details: time 6.0 hrs
Staphylococcus aureus [16] = test: Antibacterial activity against Staphylococcus aureus ATCC 25923 infected in BALB/c mouse systemic infection model assessed as reduction in bacterial load in spleen at 1.09 mg/kg, ip pre-infected for 2 hrs followed by compound addition and measured after 8 hrs postinfection; format: functional, organism-based; details: time 6.0 hrs
Staphylococcus aureus [17] = test: Antibacterial activity against Staphylococcus aureus ATCC 25923 infected in BALB/c mouse systemic infection model assessed as reduction in inflammatory response in lung tissue at 1.09 mg/kg, ip pre-infected for 2 hrs followed by compound addition and measured after 8 hrs postinfection; format: functional, organism-based; details: time 6.0 hrs
Staphylococcus aureus [18] = test: Antibacterial activity against Staphylococcus aureus ATCC 25923 infected in BALB/c mouse systemic infection model assessed as reduction in bacterial load in lung at 1.09 mg/kg, ip pre-infected for 2 hrs followed by compound addition and measured after 8 hrs postinfection; format: functional, organism-based; details: time 6.0 hrs
Staphylococcus aureus [19] = test: Antibacterial activity against Staphylococcus aureus ATCC 25923 infected in BALB/c mouse systemic infection model assessed as reduction in bacterial load in kidney at 1.09 mg/kg, ip pre-infected for 2 hrs followed by compound addition and measured after 8 hrs postinfection; format: functional, organism-based; details: time 6.0 hrs
Staphylococcus aureus [20] = test: Antibacterial activity against Staphylococcus aureus ATCC 25923 infected in BALB/c mouse systemic infection model assessed as reduction in bacterial load in liver at 1.09 mg/kg, ip pre-infected for 2 hrs followed by compound addition and measured after 8 hrs postinfection; format: functional, organism-based; details: time 6.0 hrs
[21] = Hemolytic activity in mouse erythrocyte incubated for 1 hr by microplate reader assay; format: toxicity, cell-based
[22] = Cytotoxicity against HEK293T cells incubated for 1 hr by fluorescence based microplate reader assay; format: toxicity, cell-based, HEK-293T; details: human
Klebsiella pneumoniae [23] = test: Drug resistance development in Klebsiella pneumoniae ATCC 700603 assessed as fold increase in MIC measured after 7 passage; format: functional

CN[C@H](CC(C)C)C(=O)N[C@H]1C(=O)N[C@@H](CC(N)=O)C(=O)N[C@H]2C(=O)N[C@H]3C(=O)N[C@H](C(=O)N[C@H](C(=O)O)c4cc(O)cc(O)c4-c4cc3ccc4O)[C@H](O)c3ccc(c(Cl)c3)Oc3cc2cc(c3O[C@@H]2O[C@H](CO)[C@@H](O)[C@H](O)[C@H]2O[C@H]2C[C@](C)(N)[C@H](O)[C@H](C)O2)Oc2ccc(cc2Cl)[C@H]1O [VANCOMYCIN]
inhibition (Staphylococcus aureus [1]): Active | MIC (Bacillus subtilis): < 1 µM | Activity (Staphylococcus aureus [2]): Active; Showed Poor Efficacy | MIC (Pseudomonas aeruginosa [3]): > 128 µM | MIC (Escherichia coli [4]): 128 µM (≈ 186 µg/mL) | MIC (Staphylococcus aureus [5]): 128 µM (≈ 186 µg/mL) | MIC (Escherichia coli [6]): 128 µM (≈ 186 µg/mL) | Activity (Staphylococcus aureus [7]): 100% | MIC (Pseudomonas aeruginosa [8]): > 128 µM | MIC (Staphylococcus aureus [9]): < 1 µM | MIC (Staphylococcus aureus [10]): < 1 µM | MIC (Escherichia coli [11]): 128 µM (≈ 186 µg/mL) | MIC (Klebsiella pneumoniae [12]): > 128 µM | MIC (Staphylococcus aureus [13]): < 1 µM | MIC (Acinetobacter baumannii): 64 µM (≈ 92.8 µg/mL)

CNC(C)[C@@H]1CC[C@@H](N)[C@@H](O[C@H]2[C@H](O)[C@@H](O[C@H]3OC[C@](C)(O)[C@H](NC)[C@H]3O)[C@H](N)C[C@@H]2N)O1.CN[C@@H]1[C@@H](O)[C@@H](O[C@@H]2[C@@H](O)[C@H](O[C@H]3O[C@H](C(C)N)CC[C@H]3N)[C@@H](N)C[C@H]2N)OC[C@]1(C)O.CN[C@@H]1[C@@H](O)[C@@H](O[C@@H]2[C@@H](O)[C@H](O[C@H]3O[C@H](CN)CC[C@H]3N)[C@@H](N)C[C@H]2N)OC[C@]1(C)O (some centres not stated)
Activity (Staphylococcus aureus [14]): inactive | MIC (Bacillus subtilis): < 1 µM | MIC (Pseudomonas aeruginosa [3]): < 1 µM | Activity (Staphylococcus aureus [15]): Active | MIC (Staphylococcus aureus [5]): 64 µM | Activity (Staphylococcus aureus [16]): Active | MIC (Pseudomonas aeruginosa [8]): > 128 µM | Activity (Staphylococcus aureus [17]): Active | MIC (Staphylococcus aureus [9]): 64 µM | MIC (Staphylococcus aureus [10]): < 1 µM | Activity (Staphylococcus aureus [18]): Active | Activity (Staphylococcus aureus [19]): Active | MIC (Klebsiella pneumoniae [12]): 8 µM | MIC (Staphylococcus aureus [13]): 32 µM | Activity (Staphylococcus aureus [20]): Active | MIC (Acinetobacter baumannii): 8 µM

CC(C)C[C@H](NC(=O)[C@H](CC(C)C)NC(=O)[C@@H](NC(=O)[C@H](CCCCN)NC(=O)[C@H](Cc1ccc2ccccc2c1)NC(=O)[C@H](CCCNC(=N)N)NC(=O)[C@H](CCCCN)NC(=O)[C@H](CC(C)C)NC(=O)[C@H](CC(C)C)NC(=O)CN)[C@@H](C)O)C(N)=O (H-GLLKR[2Nal]KTLL-NH2)
MIC (Bacillus subtilis): 4 µM (≈ 4.95 µg/mL) | MIC (Pseudomonas aeruginosa [3]): 4 µM (≈ 4.95 µg/mL) | MIC (Escherichia coli [4]): 16 µM (≈ 19.8 µg/mL) | MIC (Staphylococcus aureus [5]): 8 µM (≈ 9.9 µg/mL) | MIC (Escherichia coli [6]): 16 µM (≈ 19.8 µg/mL) | MHC [21]: > 256 µM | MIC (Pseudomonas aeruginosa [8]): 16 µM (≈ 19.8 µg/mL) | CC50 at 1 h [22]: 177 µM | MIC (Staphylococcus aureus [9]): 16 µM (≈ 19.8 µg/mL) | MIC (Staphylococcus aureus [10]): 16 µM (≈ 19.8 µg/mL) | MIC (Escherichia coli [11]): 8 µM (≈ 9.9 µg/mL) | MIC (Klebsiella pneumoniae [12]): 16 µM (≈ 19.8 µg/mL) | MIC (Staphylococcus aureus [13]): 16 µM (≈ 19.8 µg/mL) | MIC (Acinetobacter baumannii): 32 µM (≈ 39.6 µg/mL)

CO[C@H]1/C=C/O[C@@]2(C)Oc3c(C)c(O)c4c(O)c(c(/C=N/N5CCN(C)CC5)c(O)c4c3C2=O)NC(=O)/C(C)=C\C=C\[C@H](C)[C@H](O)[C@@H](C)[C@@H](O)[C@@H](C)[C@H](OC(C)=O)[C@@H]1C [RIFAMPIN]
MIC (Bacillus subtilis): < 1 µM | MIC (Pseudomonas aeruginosa [3]): 32 µM (≈ 26.3 µg/mL) | fold change (FC) (Klebsiella pneumoniae [23]): 128 | MIC (Escherichia coli [6]): 8 µM (≈ 6.58 µg/mL) | MIC (Staphylococcus aureus [10]): < 1 µM | MIC (Klebsiella pneumoniae [12]): 32 µM (≈ 26.3 µg/mL) | MIC (Acinetobacter baumannii): 1 µM (≈ 0.823 µg/mL)
